Test results published in US6071709A, “Nerve growth factor/receptor complex” (The United States of America as represented by the …, priority 1992, dated 2000).
“Also recorded” adds a separate entry of the source.

Legend:
gp140trk = experiment: trk tyrosine phosphorylation in explanted embryonic dorsal root ganglia treated with NGF; format: cell-based, mouse; design: dose or concentration left out as unconfirmed
Text: FIGS. 4A-B show NGF-dependent tyrosine phosphorylation of gp140trk in the human neuroblastoma cell lines LA-N-5, SY5Y, and dorsal root ganglia from mouse embryos. FIG. 4A, gp140trk was immunoprecipitated from untreated (-) or NGF treated (+) LA-N-5 cells (K. H. Sonnenfeld and D. N. Ishii, J. Neurosci. Res. 8:375-391 (1982)), SY5Y cells (K. H. Sonnenfeld and D. N. Ishii, (1982)), NR18 cells (M. A. Bothwell et al., Cell 21:857-866 (1980)), or PC12 cells. Immunoprecipitates were probed with P-tyr antibodies. The differences in trk protein mobilities are due to differences in glycosylation. FIG. 4B, Tyrosine phosphorylation of gp140trk in DRGs from 13.5 day or 14.5 day embryonic mice. […] Tyrosine phosphorylated gp140trk from NGF-treated (+) PC12 cells or untreated (-) PC12 cells is shown for comparison. Samples were normalized for cell protein. Molecular weight markers in kDa are indicated.
Cell lines were treated with 100 ng/ml NGF for 5 min and gp140trk immunoprecipitated as in FIG. 1. DRGs were prepared by dissection for 13.5 or 14.5 day mouse embryos. 100 DRG's were treated with NGF, washed, and subjected to Dounce homogenization in 1% NP40 lysis buffer. Lysates were immunoprecipitated with trk antibody and the trk proteins were analyzed by antiphosphotyrosine immunoblots. […]

gp145^trkB = gp145^trkB tyrosine phosphorylation in trkB-expressing NIH 3T3 cells (pJM8 lines), immunoprecipitation and α-Ptyr Western; format: cell-based, rat; settings: pJM8 trkB-expressing NIH 3T3 cells, 100 ng/ml factor, 5 min
Description: A 4.8 kb cDNA encompassing the coding domain of rat trkB (Middlemas et al., (1991)) was cloned into the pMEX plasmid (pJM8) downstream of the MSV promoter. NIH 3T3 cells were cotransfected with the pJM8 plasmid and a plasmid containing the neomycin phosphotransferase gene (L. F. Parada et al., Nature 312:649-651 (1984)), and G418-resistant colonies were selected. PC12 cells (Greene and Tischler, 1976) were grown in DMEM with 10% horse serum and 5% fetal calf serum. NIH 3T3 cells and the derivative cells lines were maintained in DMEM medium containing 10% calf serum. All cells were maintained in a humidified incubator at 37° C. in 5% CO2.
Approximately 10^7 cells were treated at 37° C. for 5 min with 100 ng/ml growth factors or at the concentrations and lengths of time noted in the text. NP-40 plate lysis and gp145^trkB immunoprecipitation with anti-serum 443 were performed as previously described (Kaplan et al., (1990), (1991)). The phosphotyrosine content was analyzed by Western transfer using monoclonal antibody 4G10 as previously described (Morrison et al., (1989)).
The product of the trk proto-oncogene (gp140^proto-trk) is tyrosine phosphorylated in response to NGF in PC12 cells, NGF-responsive neuroblastoma cells, heterologous fibroblasts and Xenopus oocytes (Kaplan et al., (1991); A. R. Nebreda et al., Science 252:558-560 (1991); Klein et al., (1991)). Next it was examined whether NGF elicited tyrosine phosphorylation of gp145^trkB in trkB-expressing NIH 3T3 cells. Cell line pJM8-3 was treated with high concentrations of NGF (100 ng/ml) for 5 minutes. The cells were lysed, immunoprecipitated with anti-trkB antiserum 443, transferred to nitrocellulose filters and probed with anti-phosphotyrosine (α-Ptyr) antibodies. As a negative control, untransfected NIH-3T3 cells were treated in parallel, while PC12 cells were used as a positive control for NGF responsiveness (Kaplan et al., (1991)).
BDNF and NT-3 are neurotrophic factors that display many functional and structural features that are reminiscent of NGF. The genes encoding BDNF and NT-3 have recently been cloned and used to express high levels of the biologically active factors in pure form (A. Rosenthal et al., Neuron 4:773 (1990)). It was tested whether these NGF-related neurotrophic factors would stimulate phosphorylation of the trkB glycoprotein by exposing the pJM-8 cell lines to 100 ng/ml of NGF, BDNF, or NT-3 (~4 nM) for 5 minutes. The cells were then lysed and the lysates incubated with a trkB anti-peptide antiserum (443) with or without excess peptide. After transfer to nitrocellulose filters, the trkB proteins were probed with an anti-phosphotyrosine (α-ptyr) monoclonal antibody (FIG. 10) (Kaplan et al. (1991)). […] Thus, both neurotrophic factors NT-3 and BDNF can elicit tyrosine phosphorylation of gp145^trkB in a manner similar to that observed for NGF stimulation of the trk receptor. Similar results have been obtained with NT-3 and BDNF in Rat2 cells expressing trkB.
Having detected gp145^trkB phosphorylation in response to BDNF and NT-3, it was next determined whether unrelated polypeptide growth factors were capable of eliciting a similar response. Platelet-derived growth factor (PDGF; 100 ng/ml), epidermal growth factor (EGF; 100 ng/ml), insulin (100 ng/ml), and basic fibroblast growth factor (bFGF; 100 ng/ml), were added independently to exponentially growing cultures of pJM8-3 cells.
The previous studies were done in the presence of high concentrations of neurotrophic factors. Dose response experiments were next performed to determine the range of concentrations at which phosphorylation of the trkB receptor was stimulated by NT-3 or BDNF. Cells were incubated with quantities of NT-3 or BDNF ranging from 0.1 ng/ml to 250 ng/ml and treated as described in FIG. 12. […]

p140^prototrk = p140^prototrk (Rattus norvegicus, UniProt P35739); experiment: trk tyrosine phosphorylation in rtrk-3T3 cells, suramin treatment followed by NGF (in vivo and immune complex kinase assays); format: cell-based; settings: suramin treated rtrk-3T3 cells, NGF (500 ng/ml) added for 10 min
p140^prototrk, sequence (P35739 33-799): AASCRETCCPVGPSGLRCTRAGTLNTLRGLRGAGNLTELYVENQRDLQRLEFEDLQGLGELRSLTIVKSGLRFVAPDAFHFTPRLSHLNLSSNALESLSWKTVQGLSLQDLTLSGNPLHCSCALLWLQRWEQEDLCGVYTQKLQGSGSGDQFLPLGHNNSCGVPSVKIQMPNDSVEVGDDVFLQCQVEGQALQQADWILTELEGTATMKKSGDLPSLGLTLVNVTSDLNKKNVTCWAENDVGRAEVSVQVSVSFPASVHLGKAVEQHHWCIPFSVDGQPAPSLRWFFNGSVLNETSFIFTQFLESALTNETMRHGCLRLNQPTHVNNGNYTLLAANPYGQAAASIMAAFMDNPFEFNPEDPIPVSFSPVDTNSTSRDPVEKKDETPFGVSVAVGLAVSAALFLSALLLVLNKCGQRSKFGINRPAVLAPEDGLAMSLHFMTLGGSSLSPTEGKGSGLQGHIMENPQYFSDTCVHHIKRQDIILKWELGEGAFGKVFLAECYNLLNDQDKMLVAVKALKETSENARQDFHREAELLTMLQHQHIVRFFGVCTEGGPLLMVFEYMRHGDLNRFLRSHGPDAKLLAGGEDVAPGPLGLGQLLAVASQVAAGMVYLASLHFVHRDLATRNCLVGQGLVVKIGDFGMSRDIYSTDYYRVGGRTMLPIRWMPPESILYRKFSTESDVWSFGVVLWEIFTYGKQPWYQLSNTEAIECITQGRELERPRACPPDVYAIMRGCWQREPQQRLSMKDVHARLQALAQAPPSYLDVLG
Description: Cells were treated with suramin (lanes 2 and 5) or with 500 ng/ml NGF for 10 min following suramin treatment.
rtrk 3T3 cells were generated by CaPO4 mediated transfection of a rat trk cDNA into NIH-3T3 cells. […] PC12 cells or rtrk 3T3 cells (2×10^7) were labeled with ^32 P orthophosphate (1 mCi.ml in 4 ml) for 4 hr at 37° C. […] For c, rtrk 3T3 cells were treated with 1 mM suramin in Dulbecco's Modified Eagle Medium (DMEM) for 2 h or mock treated. Following extensive washing of the cells with DMEM, NGF was added for the time indicated. Cells were lysed and the lysates were immunoprecipitated with trk antibody. Immunoprecipitates were either subjected to immunoblot analysis with the phosphotyrosine (Ptyr) monoclonal antibody 4G10 (Lanes 1-3), or were analyzed in kinase assays. […] Similar amounts of trk protein were present in each lane.

NGF: neurotrophic polypeptide factor, nerve growth factor; ligand of trk proto-oncogene receptor
phosphorylation of trk protein in 13.5 day DRG (gp140trk; E13.5 mouse embryo DRG): not in two independent preparations
phosphorylation of trk protein in 14.5 day DRG (gp140trk; E14.5 mouse embryo DRG): detectable
tyrosine phosphorylation of gp145^trkB (gp145^trkB): no increase in phosphorylation; also recorded: no detectable effect
stimulation of tyrosine phosphorylation of gp140^prototrk in vivo and in vitro (p140^prototrk): at least 10 fold
